One may read the EC90 as the concentration at which the effect reaches the 90% level. The low end stands for an effect from little substance, the high end for a need for much substance.

Experiment [1] concerns P. falciparum strain Pf 3D7. As to the kind of experiment: Growth inhibition of erythrocytic stage P. falciparum Pf 3D7. The experiment is classed as cell-based, Plasmodium falciparum.
The test system of experiment [2] is Pf20S β5. As to the kind of experiment: Hydrolysis of suc-LLVY-AMC by Pf20S, time courses of inhibition. The class given is biochemical, Plasmodium falciparum.
The test system of experiment [3] is Pf20S β5. As to the kind of experiment: Blocking of MV151 labelling of Pf20S β5. The experiment is classed as binding, Plasmodium falciparum. Conditions: with or without WLW-VS.
The subject of experiment [4] is P. falciparum lab strain Dd2. In words: Growth inhibition of Pf Dd2. The class given is cell-based, Plasmodium falciparum.
Experiment [5] deals with Pf Dd2β6A117D. As to the kind of experiment: Growth inhibition of proteasome inhibitor-resistant Pf Dd2β6A117D. The class given is cell-based, Plasmodium falciparum. As to conditions: relative to Dd2.
The test system of experiment [6] is Pf Dd2β5A49S. In words: Growth inhibition of proteasome inhibitor-resistant Pf Dd2β5A49S. The experiment is classed as cell-based, Plasmodium falciparum. As to conditions: relative to Dd2.
Experiment [7] relates to polyubiquitinated proteins in Pf trophozoites. As to the kind of experiment: Accumulation of polyubiquitinated proteins in parasites. The experiment is classed as cell-based, Plasmodium falciparum. Conditions: 6-hour exposure, 1 μM.
The subject of experiment [8] is Pf strain HB3 (chloroquine-sensitive). In words: Growth inhibition of Pf strain HB3. The class given is cell-based, Plasmodium falciparum.
Experiment [9] relates to Pf strain 3663 (ART-sensitive). As to the kind of experiment: Growth inhibition of Pf strain 3663. The experiment is classed as cell-based, Plasmodium falciparum.
The subject of experiment [10] is Pf strain 4884 (ART-resistant). In words: Growth inhibition of Pf strain 4884. The experiment is classed as cell-based, Plasmodium falciparum.
Experiment [11] deals with artemisinin-sensitive Pf Cam3.I^Rev. In words: Modified ring-stage survival assay, combination with DHA, isobologram. Conditions: 3-h pulse of DHA, continuous TDI-8304 for further 69 h; parasitemia at 72 h. The class given is cell-based, Plasmodium falciparum.
Experiment [12] relates to artemisinin-resistant Pf Cam3.I^R539T. Described as above. The experiment is classed as cell-based, Plasmodium falciparum. Conditions: 3-h pulse of DHA, continuous TDI-8304 for further 69 h; parasitemia at 72 h.
For experiment [13], the system named is P. falciparum Pf3D7^0087/N9. In words: Humanized mouse model of Pf infection, parasitemia. The class given is in vivo, NOD-SCID IL-2R-null mice transfused with human erythrocytes. Conditions: s.c. 100 mg/kg b.i.d., days 3 – 6 post infection.

On to `O=C(NC1CCCC1)[C@@H]1CCCCOc2cccc(c2)C[C@H](N2CCCC2=O)C(=O)N[C@@H](CCN2CCOCC2)C(=O)N1` [TDI-8304], for which the “Potency (EC50) against P. falciparum Pf 3D7, in words” value in [1] was “highly potent”. Also, the 90% effect level in [1] (strain not given, used as exposure threshold) (EC90) was put at 29 nM. Moreover, in [2], the “t1/2 half-life for the Pf20S:TDI-8304 complex” value was found to be 14.4 min. Further, the Inhibition modality result in [2] (induced-fit mechanism) is listed as “time-dependent inhibition”. Also, the “Blocking of labelling of Pf20S β5 by MV151” value in experiment [3] is on record as “dose-dependently blocked labelling”. The “Potency against P. falciparum lab strain Dd2” value in experiment [4] is “potent”. Besides, the “Reduction in potency against Dd2β6A117D” value in [5] was ~ 18 fold. In addition, in [6], the “EC50 against Dd2β5A49S compared with Dd2” value is “comparable”. The “Accumulation of polyubiquitinated proteins” value in experiment [7] is “accumulation of polyubiquitinated proteins”. Further, the “Activity against Pf strain HB3” value in [8] is given as “comparable activity”. In addition, in [9], the “Activity against Pf strain 3663” value is reported as “comparable activity”. Also, in experiment [10], the “Activity against Pf strain 4884” value is on record as “comparable activity”. Further, the “Interaction with DHA (isobologram)” value in experiment [11] and in experiment [12] was “synergistic killing” in each case. The “Reduction of parasitemia, one mouse” value in experiment [13] turned out to be 2 log10.
